Laboratory results from ChEMBL document CHEMBL4507300 (2021).

Key:
[1] = target: Glycogen synthase kinase-3 beta (Homo sapiens) (UniProt P49841); conditions: Compound concentration 1000.0 nM
[2] = target: Dual specificity tyrosine-phosphorylation-regulated kinase 1B (Homo sapiens) (UniProt Q9Y463); conditions: Compound concentration 1000.0 nM
[3] = target: Activin receptor type-1 (Homo sapiens) (UniProt Q04771); conditions: Compound concentration 1000.0 nM
[4] = target: Uncharacterized serine/threonine-protein kinase SBK3 (Homo sapiens) (UniProt P0C264); conditions: Compound concentration 1000.0 nM
[5] = target: Tyrosine-protein kinase ITK/TSK (Homo sapiens) (UniProt Q08881); conditions: Compound concentration 1000.0 nM
[6] = target: Activin receptor type-2A (Homo sapiens) (UniProt P27037); conditions: Compound concentration 1000.0 nM
[7] = target: Serine/threonine-protein kinase 32B (Homo sapiens) (UniProt Q9NY57); conditions: Compound concentration 1000.0 nM
[8] = target: Leukocyte tyrosine kinase receptor (Homo sapiens) (UniProt P29376); conditions: Compound concentration 1000.0 nM
[9] = target: Serine/threonine-protein kinase Sgk1 (Homo sapiens) (UniProt O00141); conditions: Compound concentration 1000.0 nM
[10] = target: Tyrosine-protein kinase Fes/Fps (Homo sapiens) (UniProt P07332); conditions: Compound concentration 1000.0 nM
Sequence of Tyrosine-protein kinase Fes/Fps (Homo sapiens) (P07332 whole entry): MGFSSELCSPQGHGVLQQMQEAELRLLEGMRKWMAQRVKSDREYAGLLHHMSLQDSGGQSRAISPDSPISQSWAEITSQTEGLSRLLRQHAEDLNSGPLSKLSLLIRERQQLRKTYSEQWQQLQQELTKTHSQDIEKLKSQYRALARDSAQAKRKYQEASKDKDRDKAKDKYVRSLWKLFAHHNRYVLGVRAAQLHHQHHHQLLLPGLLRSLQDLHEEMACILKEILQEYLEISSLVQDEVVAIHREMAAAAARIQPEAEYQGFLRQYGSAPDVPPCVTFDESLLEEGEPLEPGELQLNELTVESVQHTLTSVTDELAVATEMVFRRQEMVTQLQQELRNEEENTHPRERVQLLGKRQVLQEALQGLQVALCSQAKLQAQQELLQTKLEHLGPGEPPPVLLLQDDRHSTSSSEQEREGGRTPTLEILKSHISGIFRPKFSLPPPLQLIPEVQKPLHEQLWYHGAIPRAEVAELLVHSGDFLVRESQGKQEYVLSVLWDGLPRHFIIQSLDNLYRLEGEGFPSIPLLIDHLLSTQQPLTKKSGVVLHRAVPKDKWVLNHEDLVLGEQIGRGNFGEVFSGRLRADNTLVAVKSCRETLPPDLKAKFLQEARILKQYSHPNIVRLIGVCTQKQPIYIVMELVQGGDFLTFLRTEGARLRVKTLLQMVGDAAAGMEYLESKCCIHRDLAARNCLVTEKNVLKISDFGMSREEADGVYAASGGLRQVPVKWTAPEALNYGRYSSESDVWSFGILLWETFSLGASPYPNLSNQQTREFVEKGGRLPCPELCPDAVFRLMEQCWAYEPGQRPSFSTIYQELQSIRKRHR

[11] = target: Serine/threonine-protein kinase Nek6 (Homo sapiens) (UniProt Q9HC98); conditions: Compound concentration 1000.0 nM
[12] = target: Protein kinase C delta type (Homo sapiens) (UniProt Q05655); conditions: Compound concentration 1000.0 nM
[13] = target: NUAK family SNF1-like kinase 2 (Homo sapiens) (UniProt Q9H093); conditions: Compound concentration 1000.0 nM
[14] = target: Serine/threonine-protein kinase DCLK3 (Homo sapiens) (UniProt Q9C098); conditions: Compound concentration 1000.0 nM
[15] = target: Proto-oncogene tyrosine-protein kinase receptor Ret (Homo sapiens) (UniProt P07949); conditions: Compound concentration 1000.0 nM
[16] = target: Receptor-type tyrosine-protein kinase FLT3 (Homo sapiens) (UniProt P36888); conditions: Compound concentration 1000.0 nM
[17] = target: 5-hydroxytryptamine receptor 1B (Homo sapiens) (UniProt P28222); conditions: Compound concentration 10.0 uM
[18] = target: MAP kinase-interacting serine/threonine-protein kinase 2 (Homo sapiens) (UniProt Q9HBH9); conditions: Compound concentration 1000.0 nM
Sequence of MAP kinase-interacting serine/threonine-protein kinase 2 (Homo sapiens) (Q9HBH9 whole entry, looked up): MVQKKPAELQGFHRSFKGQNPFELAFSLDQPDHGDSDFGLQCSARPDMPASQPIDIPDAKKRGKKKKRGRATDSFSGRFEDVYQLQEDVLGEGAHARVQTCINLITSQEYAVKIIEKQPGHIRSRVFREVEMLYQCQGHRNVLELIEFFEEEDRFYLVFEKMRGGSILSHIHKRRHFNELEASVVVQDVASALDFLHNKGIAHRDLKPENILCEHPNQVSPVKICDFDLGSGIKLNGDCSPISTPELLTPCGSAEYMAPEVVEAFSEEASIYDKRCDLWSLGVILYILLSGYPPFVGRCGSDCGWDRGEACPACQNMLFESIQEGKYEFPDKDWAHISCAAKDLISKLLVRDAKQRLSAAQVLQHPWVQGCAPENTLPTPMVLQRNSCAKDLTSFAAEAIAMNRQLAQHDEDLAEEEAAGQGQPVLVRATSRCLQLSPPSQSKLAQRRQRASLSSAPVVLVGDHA

[19] = target: Serine/threonine-protein kinase SBK1 (Homo sapiens) (UniProt Q52WX2); conditions: Compound concentration 1000.0 nM
[20] = target: STE20/SPS1-related proline-alanine-rich protein kinase (Homo sapiens) (UniProt Q9UEW8); conditions: Compound concentration 1000.0 nM
[21] = target: Insulin receptor-related protein (Homo sapiens) (UniProt P14616); conditions: Compound concentration 1000.0 nM
[22] = target: Tyrosine-protein kinase Lyn (Homo sapiens) (UniProt P07948); conditions: Compound concentration 1000.0 nM
[23] = target: Tyrosine-protein kinase JAK2 (Homo sapiens) (UniProt O60674); conditions: Compound concentration 1000.0 nM
[24] = target: 5-hydroxytryptamine receptor 6 (Homo sapiens) (UniProt P50406); conditions: Compound concentration 10.0 uM
[25] = target: Homeodomain-interacting protein kinase 2 (Homo sapiens) (UniProt Q9H2X6); conditions: Compound concentration 1000.0 nM
Sequence of Homeodomain-interacting protein kinase 2 (Homo sapiens) (Q9H2X6 whole entry, looked up): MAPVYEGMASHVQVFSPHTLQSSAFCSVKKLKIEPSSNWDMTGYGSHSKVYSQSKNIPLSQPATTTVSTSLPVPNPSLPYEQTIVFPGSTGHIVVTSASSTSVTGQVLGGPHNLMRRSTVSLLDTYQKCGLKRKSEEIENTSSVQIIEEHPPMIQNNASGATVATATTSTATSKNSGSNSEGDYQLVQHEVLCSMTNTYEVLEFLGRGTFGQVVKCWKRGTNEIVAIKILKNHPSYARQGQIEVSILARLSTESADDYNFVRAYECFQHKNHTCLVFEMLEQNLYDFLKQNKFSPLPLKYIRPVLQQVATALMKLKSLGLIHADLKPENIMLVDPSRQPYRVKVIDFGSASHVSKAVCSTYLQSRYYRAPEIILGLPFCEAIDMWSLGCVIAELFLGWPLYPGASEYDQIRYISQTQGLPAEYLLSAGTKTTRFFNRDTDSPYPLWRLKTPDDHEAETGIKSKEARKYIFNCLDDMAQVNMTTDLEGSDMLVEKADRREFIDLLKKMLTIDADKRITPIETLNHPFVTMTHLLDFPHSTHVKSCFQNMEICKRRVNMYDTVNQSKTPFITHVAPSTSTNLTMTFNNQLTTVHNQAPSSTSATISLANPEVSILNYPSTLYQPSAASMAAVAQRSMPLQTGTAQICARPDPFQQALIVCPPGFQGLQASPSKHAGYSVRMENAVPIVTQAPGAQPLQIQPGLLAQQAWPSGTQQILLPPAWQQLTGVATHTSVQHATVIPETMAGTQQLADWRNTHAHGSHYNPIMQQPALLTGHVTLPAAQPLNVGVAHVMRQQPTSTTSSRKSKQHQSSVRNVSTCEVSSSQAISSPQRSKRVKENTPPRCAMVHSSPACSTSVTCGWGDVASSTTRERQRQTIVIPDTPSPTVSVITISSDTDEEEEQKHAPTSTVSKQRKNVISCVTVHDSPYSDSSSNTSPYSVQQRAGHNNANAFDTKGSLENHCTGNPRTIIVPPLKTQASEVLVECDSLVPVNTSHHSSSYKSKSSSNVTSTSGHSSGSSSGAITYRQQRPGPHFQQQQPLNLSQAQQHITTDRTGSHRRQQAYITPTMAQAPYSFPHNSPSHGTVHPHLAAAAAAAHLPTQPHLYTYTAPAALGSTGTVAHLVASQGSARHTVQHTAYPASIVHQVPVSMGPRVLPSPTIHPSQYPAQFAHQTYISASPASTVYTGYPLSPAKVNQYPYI

[26] = target: Ribosomal protein S6 kinase alpha-1 (Homo sapiens) (UniProt Q15418); conditions: Compound concentration 1000.0 nM
[27] = target: RAC-gamma serine/threonine-protein kinase (Homo sapiens) (UniProt Q9Y243); conditions: Compound concentration 1000.0 nM
[28] = target: Ribosomal protein S6 kinase alpha-6 (Homo sapiens) (UniProt Q9UK32); conditions: Compound concentration 1000.0 nM
[29] = target: Macrophage-stimulating protein receptor (Homo sapiens) (UniProt Q04912); conditions: Compound concentration 1000.0 nM
[30] = tested on: Mast/stem cell growth factor receptor Kit (Homo sapiens), P10721 [L576P]; conditions: Compound concentration 1000.0 nM
[31] = target: Mitogen-activated protein kinase kinase kinase 7 (Homo sapiens) (UniProt O43318); conditions: Compound concentration 1000.0 nM
[32] = target: Death-associated protein kinase 1 (Homo sapiens) (UniProt P53355); conditions: Compound concentration 1000.0 nM
Sequence of Death-associated protein kinase 1 (Homo sapiens) (P53355 whole entry, looked up): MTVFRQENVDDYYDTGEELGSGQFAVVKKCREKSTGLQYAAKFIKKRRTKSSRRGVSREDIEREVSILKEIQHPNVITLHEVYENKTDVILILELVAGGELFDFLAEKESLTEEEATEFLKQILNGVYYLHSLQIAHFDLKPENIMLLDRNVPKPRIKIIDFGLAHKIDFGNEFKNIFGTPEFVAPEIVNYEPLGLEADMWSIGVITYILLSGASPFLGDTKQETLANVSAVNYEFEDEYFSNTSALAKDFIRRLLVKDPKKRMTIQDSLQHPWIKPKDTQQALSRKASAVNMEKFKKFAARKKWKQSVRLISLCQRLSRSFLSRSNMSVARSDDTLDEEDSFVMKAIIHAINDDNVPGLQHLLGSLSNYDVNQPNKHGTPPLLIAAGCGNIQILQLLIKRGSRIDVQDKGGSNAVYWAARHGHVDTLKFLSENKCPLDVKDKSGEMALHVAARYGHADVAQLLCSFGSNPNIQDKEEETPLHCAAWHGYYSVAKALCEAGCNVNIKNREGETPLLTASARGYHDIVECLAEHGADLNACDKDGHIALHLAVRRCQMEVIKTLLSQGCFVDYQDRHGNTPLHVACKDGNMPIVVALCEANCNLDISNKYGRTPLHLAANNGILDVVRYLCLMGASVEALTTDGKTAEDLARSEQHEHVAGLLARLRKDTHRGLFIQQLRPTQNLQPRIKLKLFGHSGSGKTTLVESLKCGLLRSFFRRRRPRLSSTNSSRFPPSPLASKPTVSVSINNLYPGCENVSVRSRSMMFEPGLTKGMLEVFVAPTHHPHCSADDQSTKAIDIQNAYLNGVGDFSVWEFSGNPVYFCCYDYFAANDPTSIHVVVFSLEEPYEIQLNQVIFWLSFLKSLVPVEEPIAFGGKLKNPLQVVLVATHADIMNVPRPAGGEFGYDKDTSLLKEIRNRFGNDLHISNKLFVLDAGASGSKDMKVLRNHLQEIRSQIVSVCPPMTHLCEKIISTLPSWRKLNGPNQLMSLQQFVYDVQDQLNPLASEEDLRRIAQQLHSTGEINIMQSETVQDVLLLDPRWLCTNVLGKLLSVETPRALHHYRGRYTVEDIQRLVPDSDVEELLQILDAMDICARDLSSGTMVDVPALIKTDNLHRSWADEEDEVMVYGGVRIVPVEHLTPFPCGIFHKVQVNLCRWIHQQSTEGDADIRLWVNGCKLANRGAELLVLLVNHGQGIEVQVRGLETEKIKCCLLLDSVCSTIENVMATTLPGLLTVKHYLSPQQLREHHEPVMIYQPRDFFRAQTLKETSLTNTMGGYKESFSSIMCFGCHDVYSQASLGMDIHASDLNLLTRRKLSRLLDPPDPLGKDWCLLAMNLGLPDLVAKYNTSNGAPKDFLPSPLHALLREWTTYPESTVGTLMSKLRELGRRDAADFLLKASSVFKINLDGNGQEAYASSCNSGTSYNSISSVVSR

[33] = tested on: Epidermal growth factor receptor (Homo sapiens), P00533 [UNDEFINED MUTATION]; conditions: Compound concentration 1000.0 nM
[34] = target: RAC-alpha serine/threonine-protein kinase (Homo sapiens) (UniProt P31749); conditions: Compound concentration 1000.0 nM
Sequence of RAC-alpha serine/threonine-protein kinase (Homo sapiens) (P31749 whole entry): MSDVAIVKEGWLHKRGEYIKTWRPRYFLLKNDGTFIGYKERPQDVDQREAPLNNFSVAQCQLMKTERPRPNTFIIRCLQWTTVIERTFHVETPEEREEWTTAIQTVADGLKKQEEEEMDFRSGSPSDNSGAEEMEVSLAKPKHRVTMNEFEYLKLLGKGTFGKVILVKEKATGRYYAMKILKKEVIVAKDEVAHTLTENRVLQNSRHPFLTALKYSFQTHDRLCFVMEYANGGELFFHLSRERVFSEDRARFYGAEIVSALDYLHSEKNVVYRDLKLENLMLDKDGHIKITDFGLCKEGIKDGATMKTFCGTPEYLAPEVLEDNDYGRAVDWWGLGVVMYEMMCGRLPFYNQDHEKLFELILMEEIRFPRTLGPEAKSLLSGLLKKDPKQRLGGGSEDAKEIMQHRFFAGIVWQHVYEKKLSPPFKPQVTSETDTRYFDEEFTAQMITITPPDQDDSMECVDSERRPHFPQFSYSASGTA

[35] = target: Serine/threonine-protein kinase PAK 1 (Homo sapiens) (UniProt Q13153); conditions: Compound concentration 1000.0 nM
[36] = target: Myosin-IIIa (Homo sapiens) (UniProt Q8NEV4); conditions: Compound concentration 1000.0 nM
[37] = target: Muscarinic acetylcholine receptor M2 (Homo sapiens) (UniProt P08172); conditions: Compound concentration 10.0 uM
[38] = target: RAC-beta serine/threonine-protein kinase (Homo sapiens) (UniProt P31751); conditions: Compound concentration 1000.0 nM
[39] = tested on: Receptor-type tyrosine-protein kinase FLT3 (Homo sapiens), P36888 [N841I]; conditions: Compound concentration 1000.0 nM
[40] = target: Megakaryocyte-associated tyrosine-protein kinase (Homo sapiens) (UniProt P42679); conditions: Compound concentration 1000.0 nM
[41] = target: Ephrin type-B receptor 6 (Homo sapiens) (UniProt O15197); conditions: Compound concentration 1000.0 nM
[42] = target: Calcium/calmodulin-dependent protein kinase kinase 2 (Homo sapiens) (UniProt Q96RR4); conditions: Compound concentration 1000.0 nM
[43] = tested on: Phosphatidylinositol 4,5-bisphosphate 3-kinase catalytic subunit alpha isoform (Homo sapiens), P42336 [E542K]; conditions: Compound concentration 1000.0 nM
[44] = target: Dual specificity mitogen-activated protein kinase kinase 7 (Homo sapiens) (UniProt O14733); conditions: Compound concentration 1000.0 nM
[45] = target: Mitogen-activated protein kinase 6 (Homo sapiens) (UniProt Q16659); conditions: Compound concentration 1000.0 nM

Sequence of Glycogen synthase kinase-3 beta (Homo sapiens) (P49841 whole entry, looked up): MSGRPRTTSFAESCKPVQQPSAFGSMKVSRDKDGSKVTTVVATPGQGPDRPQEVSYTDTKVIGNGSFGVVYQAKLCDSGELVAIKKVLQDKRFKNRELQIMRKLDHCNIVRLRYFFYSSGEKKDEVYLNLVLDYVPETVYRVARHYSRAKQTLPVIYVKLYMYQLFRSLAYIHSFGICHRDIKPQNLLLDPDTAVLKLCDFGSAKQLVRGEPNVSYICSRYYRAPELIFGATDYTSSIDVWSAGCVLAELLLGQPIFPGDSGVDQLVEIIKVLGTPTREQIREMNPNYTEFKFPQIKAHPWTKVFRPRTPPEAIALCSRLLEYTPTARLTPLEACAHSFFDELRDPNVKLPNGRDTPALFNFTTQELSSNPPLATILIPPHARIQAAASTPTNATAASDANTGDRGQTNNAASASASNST

COc1cccc(CNC(=O)c2nc3scc(COCc4ccc(C(=O)O)cc4)c3c(=O)[nH]2)c1 [T-26c]
inactive: residual activity [1] 62.6% | residual activity [2] 100% | residual activity [3] 94.3% | residual activity [4] 100% | residual activity [5] 86.8% | residual activity [6] 92.9% | residual activity [7] 93.4% | residual activity [8] 70.6% | residual activity [9] 93.4% | residual activity [10] 94.5% | residual activity [11] 71% | residual activity [12] 87.7% | residual activity [13] 76.4% | residual activity [14] 100% | residual activity [15] 72.3% | residual activity [16] 85% | inhibition [17] 15.9% | residual activity [18] 73.2% | residual activity [19] 53.7% | residual activity [20] 100% | residual activity [21] 100% | residual activity [22] 93.7% | residual activity [23] 100% | inhibition [24] 15.8% | residual activity [25] 72.9% | residual activity [26] 100% | residual activity [27] 84.8% | residual activity [28] 63.5% | residual activity [29] 81.9% | residual activity [30] 100% | residual activity [31] 60.2% | residual activity [32] 100% | residual activity [33] 76% | residual activity [34] 99.9% | residual activity [35] 100% | residual activity [36] 88% | inhibition [37] -2.95% | residual activity [38] 93.3% | residual activity [39] 100% | residual activity [40] 97.8% | residual activity [41] 100% | residual activity [42] 100% | residual activity [43] 76.1% | residual activity [44] 81.2% | residual activity [45] 99.9%
